# Laboratory results: patent US20250186456A1, “PYRIMIDINE-FUSED CYCLIC COMPOUND AND PREPARATION METHOD AND USE THEREOF” (Genfleet Therapeutics (Shanghai) Inc., priority 2021, published 2025)
# Legend:
# Type in all cases: cell-based, human
# [1] = tested on: p-ERK in AGS cells (KRAS G12D mutation); experiment: Cell p-ERK assay (HTRF, Advance ERK phospho-T202/Y204 kit); details: Homo sapiens; AGS cells, 3 hours incubation with compound, HTRF; read-out: AGS p-ERK IC50
# In short: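 Phospho-ERK (T202/Y204) measured by HTRF in lysates of human gastric AGS cells carrying KRAS G12D, after 3 h compound exposure at 0.1% DMSO over a 3.16-fold series. Percent inhibition relative to DMSO control and lysis-only blank; four-parameter curve fitting gave IC50.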
# [2] = tested on: AsPC-1 cells (KRAS G12D mutation); experiment: Cell proliferation inhibition assay, 3D, CellTiter-Glo 3D, AsPC-1; details: Homo sapiens, ASPC1, 120 h, AsPC-1 3D sphere model, 5 days incubation
# In short: (§1)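 Spheroids (800 AsPC-1 or 400 AGS cells/well; RPMI-1640 or F-12K with 10% FBS) formed overnight, then were dosed on day 2 with a 3.16-fold series at 0.1% DMSO. After 5 days, viability was read by CellTiter-Glo 3D luminescence, and IC50 came from four-parameter fits of inhibition versus DMSO control and medium blank.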
# AGS cells (KRAS G12D) = experiment: Cell proliferation inhibition assay, 3D, CellTiter-Glo 3D, AGS; details: Homo sapiens, 120 h, AGS 3D sphere model, 5 days incubation
# In short: as §1
Structure (SMILES),IC50 [1] [nM],IC50 [2] [nM],IC50 (AGS cells (KRAS G12D)) [nM]
"C#Cc1cccc2cc(N)cc(-c3nc4c5c(nc(OCC6(CN(C)CC(F)(F)F)CC6)nc5c3F)N3C[C@H]5CC[C@H](N5)[C@H]3[C@H](C)O4)c12 [Example Z714, 5-Ethynyl-4-((5S,5aS,6S,9R)-1-Fluoro-5-Methyl-12-((1-((Methyl(2,2,2-Trifluoroethyl)Amino)Methyl)Cyclopropyl)Methoxy)-5a,6,7,8,9,10-Hexahydro-5H-4-Oxa-3,10a,11,13,14-Pentaaza-6,9-Methanonaphtho[1,8-Ab]Heptalen-2-Yl) Naphthalen-2-Amine]",622,815,673
"C#Cc1cccc2c(F)c(N)cc(-c3nc4c5c(nc(OCC67CC(=C)CN6CC(=C)C7)nc5c3F)N3C[C@H]5CC[C@H](N5)[C@H]3[C@H](C)O4)c12 [Example Z727, 4-((5S,5aS,6S,9R)-12-((2,6-dimethylenetetrahydro-1H-pyrrolizin-7a (5H)-yl)methoxy)-1-fluoro-5-methyl-5a,6,7,8,9,10-hexahydro-5H-4-oxa-3,10a, 11,13,14-pentaaza-6,9-methanonaphtho[1,8-ab]heptalene-2-yl)-5-ethynyl-1-fluoronaphthalen-2-amine]",5.01,12.3,9.3
"C#Cc1cccc2cc(N)cc(-c3nc4c5c(nc(OCC6(CN7CC[C@@H](F)C7)CC6)nc5c3F)N3C[C@H]5CC[C@H](N5)[C@H]3[C@H](C)O4)c12 [Example Z710, 5-Ethynyl-4-((5S,5aS,6S,9R)-1-Fluoro-12-((1-(((R)-3-Fluoropyrrolidin-1-Yl)Methyl)Cyclopropyl)Methoxy)-5-Methyl-5a,6,7,8,9,10-Hexahydro-5H-4-Oxa-3,10a,11,13,14-Pentaaza-6,9-Methanonaphtho[1,8-Ab]Heptalen-2-Yl) Naphthalen-2-Amine]",0.34,3.72,4.26
"C#Cc1c(F)ccc2cccc(-c3nc4c5c(nc(OC[C@]67C[C@@H](F)CN6CCC7=C)nc5c3F)N3C[C@H]5CC[C@H](N5)[C@H]3[C@H](C)O4)c12 (single isomer, unassigned) [Example Z689]",6.61,17.4,19.3
"C#Cc1c(F)ccc2cccc(-c3nc4c5c(nc(OCC67CCCN6CCC7=CF)nc5c3F)N3C[C@H]5CC[C@H](N5)[C@H]3[C@H](C)O4)c12 (stereo partly drawn) [Example Z611, (5S,5aS,68,9R)-2-(8-ethynyl-7-fluoronaphthalen-1-yl)-1-fluoro-12-((1-(fluoromethylene)tetrahydro-1H-pyrrolizin-7a (5H)-yl)methoxy)-5-methyl-5a,6,7,8,9,10-hexahydro-5H-4-oxa-3,10a,11,13,14-pentaaza-6,9-methanonaphtho[1,8-ab]heptalene]",19.6,49.1,10.4
"C#Cc1c(F)ccc2cccc(-c3nc4c5c(nc(OCC67CC(O)CN6CCC7=C)nc5c3F)N3C[C@H]5CC[C@H](N5)[C@H]3[C@H](C)O4)c12 (stereo partly drawn) [Example Z674, 7a-((((5S,5aS,6S,9R)-2-(8-ethynyl-7-fluoronaphthalen-1-yl)-1-fluoro-5-methyl-5a,6,7,8,9,10-hexahydro-5H-4-oxa-3,10a, 11, 13, 14-pentaaza-6,9-methanonaphtho[1,8-ab]heptalen-12-yl)oxy)methyl)-7-methylenehexahydro-1H-pyrrolizin-2-ol]",10.7,475,108
"C#Cc1c(F)ccc2cc(O)cc(-c3nc4c5c(nc(OCC67CCCN6CC(F)(F)C7)nc5c3F)N3C[C@H]5CC[C@H](N5)[C@H]3[C@H](C)O4)c12 (stereo partly drawn) [Example Z723, 4-((5S,5aS,6S,9R)-12-((2,2-difluorotetrahydro-1H-pyrrolizin-7a (5H)-yl)methoxy)-1-fluoro-5-methyl-5a,6,7,8,9,10-hexahydro-5H-4-oxa-3,10a, 11,13,14-pentaaza-6,9-methanonaphtho[1,8-ab]heptalene-2-yl)-5-ethynyl-6-fluoronaphthalen-2-ol]",6.96,55.4,15.1
C#Cc1c(F)ccc2cccc(-c3nc4c5c(nc(OCC67CC8(CC8)CN6CC6(CC6)C7)nc5c3F)N3C[C@H]5CC[C@H](N5)[C@H]3[C@H](C)O4)c12 [Example Z628],45.5,144,40
"C#Cc1c(F)ccc2cccc(-c3nc4c5c(nc(OCC67CC(=C)CN6CC(=C)C7)nc5c3F)N3C[C@H]5CC[C@H](N5)[C@H]3[C@H](C)O4)c12 [Example Z388, (5S,5aS,6S,9R)-12-((2,6-dimethylenetetrahydro-1H-pyrrolizin-7a (5H)-yl)methoxy)-2-(8-ethynyl-7-fluoronaphthalen-1-yl)-1-fluoro-5-methyl-5a,6,7,8,9,10-hexahydro-5H-4-oxa-3,10a, 11, 13,14-pentaaza-6,9-methanonaphtho[1,8-ab]heptalene]",17.9,191,53.1
"C#Cc1cccc2cc(N)cc(-c3nc4c5c(nc(OCC6(CN7CCOCC7)CC6)nc5c3F)N3C[C@@H](C)NC[C@H]3[C@H](C)O4)c12 [Example Z709, 5-ethynyl-4-((5S,5aS,8R)-1-fluoro-5,8-dimethyl-11-((1-(morpholinomethyl)cyclopropyl)methoxy)-5,5a,6,7,8,9-hexahydro-4-oxa-3,7,9a,10,12-pentaazabenzo[4,5]cyclohepta[1,2,3-de]naphthalen-2-yl) naphthalen-2-amine]",12.2,117,86.8
"C=C1CCN2C[C@H](F)CC12COc1nc2c3c(nc(-c4cc(N)c(F)c5ccc(F)c(F)c45)c(F)c3n1)O[C@@H](C)[C@@H]1[C@@H]3CC[C@H](CN21)N3 (stereo partly drawn) [Example Z731, 1,5,6-trifluoro-4-((5S, 5aS,6S,9R)-1-fluoro-12-(((6R)-6-fluoro-1-methylenetetrahydro-1H-pyrrolizin-7a (5H)-yl)methoxy)-5-methyl-5a,6,7,8,9,10-hexahydro-5H-4-oxa-3,10a, 11,13,14-pentaaza-6,9-methanonaphtho[1,8-ab]heptalene-2-yl) naphthalen-2-amine]",1.6,15.8,5.7
"C#Cc1c(F)ccc2cccc(-c3nc4c5c(nc(OCC67CC(=C)CN6CCC7=C)nc5c3F)N3C[C@H]5CC[C@H](N5)[C@H]3[C@H](C)O4)c12 (stereo partly drawn) [Example Z610, (5S,5aS,6S,9R)-12-((1,6-dimethylenetetrahydro-1H-pyrrolizin-7a (5H)-yl)methoxy)-2-(8-ethynyl-7-fluoronaphthalen-1-yl)-1-fluoro-5-methyl-5a,6,7,8,9,10-hexahydro-5H-4-oxa-3,10a, 11,13,14-pentaaza-6,9-methanonaphtho[1,8-ab]heptalene]",17.2,42.3,18.6
"C#Cc1c(F)ccc2cccc(-c3nc4c5c(nc(OCC67C[C@@H](F)CN6CCC7=C)nc5c3F)N3C[C@H]5CC[C@H](N5)[C@H]3[C@H](C)O4)c12 (stereo partly drawn) [Example Z675, (5S,5aS,6S,9R)-2-(8-ethynyl-7-fluoronaphthalen-1-yl)-1-fluoro-12-(((6R)-6-fluoro-1-methylenetetrahydro-1H-pyrrolizin-7a (5H)-yl)methoxy)-5-methyl-5a,6,7,8,9,10-hexahydro-5H-4-oxa-3,10a,11,13,14-pentaaza-6,9-methanonaphtho[1,8-ab]heptalene]",11.1,31.2,31.2
